From ChEMBL document CHEMBL5131491, “N6-modification of 7-Deazapurine nucleoside analogues as Anti-Trypanosoma cruzi and anti-Leishmania agents: Structure-activity relationship exploration and In vivo evaluation” (Eur J Med Chem, 2022)

Tests used:
Leishmania infantum = assay: Antileishmanial activity against intracellular Leishmania infantum MHOM/MA(BE)/67 amastigotes infected in Swiss mouse peritoneal macrophages assessed as parasite growth inhibition incubated for 5 days by giemsa staining based microscopic analysis; assay type: functional, organism-based; details: MHOM/MA(BE)/67, Macrophage, 120 h
[1] = Cytotoxicity against human MRC5 fibroblast cells assessed as reduction in cell viability measured after 3 days by fluorometry; assay type: toxicity, cell-based; details: time 3 day
Trypanosoma cruzi [2] = assay: Antitrypanosomal activity against intracellular Trypanosoma cruzi Tulahuen amastigotes expressing CL2 beta-galactosidase in human MRC5 cells assessed as parasite growth inhibition using chlorophenol red beta-D-galactopyranoside as substrate treated for 7 days by spectrophotometry; assay type: functional, organism-based; details: MRC5, 168 h
[3] = Selectivity index, ratio of CC50 for human MRC-5 cells to EC50 for antitrypanosomal activity against intracellular Trypanosoma cruzi Tulahuen amastigotes expressing CL2 beta-galactosidase in human MRC5 cells; assay type: toxicity, cell-based; details: read-out: Selectivity Index
[4] = Cytotoxicity against Swiss mouse peritoneal macrophages assessed as reduction in cell viability measured after 5 days by microscopic analysis; assay type: toxicity, cell-based, Macrophage; details: time 5 day
[5] = Selectivity index, ratio of CC50 for Swiss mouse peritoneal macrophages to EC50 for antileishmanial activity against intracellular Leishmania infantum MHOM/MA(BE)/67 amastigotes infected in Swiss mouse peritoneal macrophages; assay type: toxicity, cell-based; details: read-out: Selectivity Index
Trypanosoma cruzi [6] = assay: Antitrypanosomal activity against Trypanosoma cruzi Y strain infected in acute CD Swiss Webster mouse model assessed as reduction in parasitemia at 100 mg/kg, po qd for 5 consecutive days by light microscopy relative to control; assay type: functional; parameters: scale not given: the % may be the effect or the level left; details: time 5 day
[7] = Toxicity in acute CD Swiss Webster mouse model infected with Trypanosoma cruzi Y strain assessed as animal survival at 100 mg/kg, po qd for 5 consecutive days measured daily for upto 30 days post-treatment; assay type: organism-based; details: in vivo, 720 h, time < 30 day

| SMILES | EC50 (Leishmania infantum) [µM] | CC50 at 72 h [1] [µM] | EC50 (Trypanosoma cruzi [2]) [µM] | selectivity ratio [3] | CC50 at 120 h [4] [µM] | selectivity ratio [5] | Activity (Trypanosoma cruzi [6]) [%] | Survival [7] |
| --- | --- | --- | --- | --- | --- | --- | --- | --- |
| CCCCCCCCCCCCCCCCOP(=O)([O-])OCC[N+](C)(C)C [MILTEFOSINE] | 8.3 |  |  |  |  |  |  |  |
| CNc1ncnc2c1ccn2[C@H]1O[C@@H](CO)[C@H](O)[C@@H]1O | > 64 | > 64 | 32.3 | > 1.98 | > 64 |  |  |  |
| OC[C@H]1O[C@@H](n2ccc3c(NC4CCCC4)ncnc32)[C@H](O)[C@@H]1O | 35 | > 64 | 14.5 | > 4.41 | > 64 | > 1.83 |  |  |
| CC1CCN(c2ncnc3c2ccn3[C@@H]2O[C@H](CO)[C@@H](O)[C@H]2O)CC1 | 2.6 | > 64 | 7.84 | > 8.15 | 8 | 3.08 |  |  |
| Nc1ncc2ccn([C@@H]3O[C@H](CO)[C@@H](O)[C@H]3O)c2n1 | > 64 | > 64 | 33.8 | > 1.89 | > 64 |  |  |  |
| Nc1ncnc2c1ccn2[C@@H]1O[C@H](CO)[C@@H](O)[C@H]1O [TUBERCIDIN] | 0.13 | 2.23 | 0.34 | 6.6 | 0.13 | 1 |  |  |
| OC[C@H]1O[C@@H](n2ccc3c(N4CCCC4)ncnc32)[C@H](O)[C@@H]1O | > 64 | > 64 | > 64 |  | 64 |  |  |  |
| CCCCNc1ncnc2c1ccn2[C@@H]1O[C@H](CO)[C@@H](O)[C@H]1O | 3.84 | > 64 | 4.13 | > 15.5 | > 64 | > 16.7 |  |  |
| Nc1nc(N)c2ccn([C@@H]3O[C@H](CO)[C@@H](O)[C@H]3O)c2n1 | 21.4 | > 64 | 1.36 | 6.6 | > 64 | > 2.99 |  |  |
| Nc1cnc2c(ccn2[C@@H]2O[C@H](CO)[C@@H](O)[C@H]2O)c1 | > 64 | > 64 | > 64 | 7.9 | > 64 |  |  |  |
| OC[C@H]1O[C@@H](n2ccc3c(NC4CCCCC4)ncnc32)[C@H](O)[C@@H]1O | 19.3 | 44.6 | 7.82 | 5.7 | > 64 | > 3.32 |  |  |
| CCCNc1ncnc2c1ccn2[C@@H]1O[C@H](CO)[C@@H](O)[C@H]1O | > 64 | > 64 | 14.2 | > 4.51 | > 64 |  |  |  |
| OC[C@H]1O[C@@H](n2ccc3c(N4CCCCC4)ncnc32)[C@H](O)[C@@H]1O | 1.11 | > 64 | 7.74 | > 8.27 | 2 | 1.8 |  |  |
| CN(C)c1ncnc2c1ccn2[C@@H]1O[C@H](CO)[C@@H](O)[C@H]1O | > 64 | 7.06 | 1.65 | 4.28 | 64 |  |  |  |
| OC[C@H]1O[C@@H](n2ccc3c(NCc4ccccc4)ncnc32)[C@H](O)[C@@H]1O | 1.09 | > 64 | 7.48 | > 8.56 | 5 | 4.59 |  |  |
| Nc1ccnc2c1ccn2[C@@H]1O[C@H](CO)[C@@H](O)[C@H]1O | 38.9 | 17.9 | 2.27 | > 47.1 | > 64 | > 1.65 |  |  |
| CCNc1ncnc2c1ccn2[C@@H]1O[C@H](CO)[C@@H](O)[C@H]1O | 0.51 | > 64 | 5.08 | > 12.6 | > 64 | > 125 |  |  |
| OC[C@H]1O[C@@H](n2ccc3c(Nc4ccccc4)ncnc32)[C@H](O)[C@@H]1O | 1.37 | > 64 | 7.89 | > 8.11 | 2 | 1.46 |  |  |
| CC(C)Nc1ncnc2c1ccn2[C@@H]1O[C@H](CO)[C@@H](O)[C@H]1O | > 64 | > 64 | > 64 |  | > 64 |  |  |  |
| OC[C@H]1O[C@@H](n2ccc3c(N4CCOCC4)ncnc32)[C@H](O)[C@@H]1O | > 64 | > 64 | > 64 |  | > 64 |  |  |  |
| Nc1ncnc2c1ccn2[C@@H]1O[C@H](CO)C[C@H]1O | > 64 | > 64 | > 64 |  | > 64 |  |  |  |
| OC[C@H]1O[C@@H](n2ccc3c(N4CCC4)ncnc32)[C@H](O)[C@@H]1O | > 64 | > 64 | 6.67 | > 9.6 | 64 |  |  |  |
| C=CCNc1ncnc2c1ccn2[C@@H]1O[C@H](CO)[C@@H](O)[C@H]1O | 6.01 | 8.9 | 2.58 | 3.45 | 8 | 1.33 |  |  |
| OC[C@H]1O[C@@H](n2ccc3c(NC4CC4)ncnc32)[C@H](O)[C@@H]1O | 0.36 | > 64 | 2.28 | > 28.1 | 1.25 | 3.47 |  |  |
| O=C(Cn1ccnc1[N+](=O)[O-])NCc1ccccc1 [BENZNIDAZOLE] |  |  |  |  |  |  | 100 | Non-Toxic |
| CCN(CC)c1ncnc2c1ccn2[C@@H]1O[C@H](CO)[C@@H](O)[C@H]1O | > 64 | > 64 | > 64 |  | 64 |  |  |  |
